Reference: US20060069132A1, “Azolecarboxamide herbicides” (priority 2004, published 2006)

Columns and labels:
[1] = tested on: wheat cv. Retical; experiment: Test H safening on wheat by naphthalic anhydride seed treatment, pre-/postemergence; assay type: in vivo, Triticum aestivum; design: key to Response of wheat, Without naphthalic anhydride seed treatment: 0 = no effect, 100 = complete plant death, vs untreated control; conditions: preemergence
Experimental: This test evaluated the safening of compounds of the invention on wheat (Triticum aestivumL.) cv. ‘Retical’ by seed treatment with naphthalic anhydride. Some of the wheat seed was treated with napthalic anhydride as a 1% by weight seed dressing. The wheat seed were planted in pots containing pasteurized Sassafras sandy loam soil. For postemergence testing the plants were grown 8 days to the 2-leaf stage at time of treatment. Preemergence treatments were applied the same day that the seeds were planted. Treatments were applied by spraying the test compounds formulated in a non-phytotoxic solvent mixture, using a flat fan nozzle and a spray volume of 280 L/ha. The preemergence treatments were triply replicated and the results subsequently averaged. The pots were placed on a growth chamber bench using a complete randomized block design for the preemergence test except for the first replicate, which was unrandomized. The plants were grown in the growth chamber and watered as needed with a dilute nutrient solution containing 200 ppm of N. Illumination was provided by fluorescent lamps giving 200-300 μE/m^2/S of photosynthetically active radiation over a 14-hour photoperiod. The temperature was maintained at 23±2° C. during the day and 17±2° C. at night. The effects of the treatments were rated 25 days after preemergence treatment and 14 days after postemergence treatment. The plant response was visually rated in comparison to untreated controls using a scale of 0 to 100, with 0 representing no effect and 100 representing complete plant death. The results for the compounds tested preemergence are listed in Table H1, and the results for the compounds tested postemergence are listed in Table H2.

[2] = tested on: corn (maize) cv. Pioneer 33G26; experiment: Test G safening on corn by naphthalic anhydride seed treatment, preemergence; assay type: in vivo, Zea mays
Description: This test evaluated the safening of compounds of the invention on corn (maize; Zea mays L.) cv. ‘Pioneer 33G26’ by seed treatment with naphthalic anhydride (1,8-naphthalic anhydride). All corn seed had been first treated with fludioxonil and metaxyl applied at the manufacturer's recommended rate as per the Pioneer 33G26 label. Some of the corn seed were subsequently also treated with naphthalic anhydride as a 1% by weight seed dressing. The corn seed were planted in pots containing pasteurized Sassafras sandy loam soil, and then treatments were applied preemergence the same day. Treatments were applied by spraying the test compounds formulated in a non-phytotoxic solvent mixture, using a flat fan nozzle and a spray volume of 280 L/ha. The treatments were triply replicated and the results subsequently averaged. The pots were placed on a greenhouse bench using a complete randomized block design except for the first replicate, which was unrandomized. The plants were grown in the greenhouse and watered as needed with a dilute nutrient solution containing 200 ppm of N. Illumination was daylight supplemented by artificial sources to maintaining a photoperiod of 16 hours. The temperature was maintained at 28±2° C. during the day and 23±2° C. at night. The plant response was visually rated 25 days after treatment in comparison to untreated controls using a scale of 0 to 100, with 0 representing no effect and 100 representing complete plant death.

[3] = tested on: early watergrass; experiment: Test D flooded paddy test; assay type: in vivo, Echinochloa oryzoides; conditions: 21 days, scale 0 to 100
Description: (§1) Three plastic pots (ca. 16-cm diameter) per rate were partially filled with sterilized Tama silt loam soil comprising a 35:50:15 ratio of sand, silt and clay and 2.6% organic matter. Separate plantings for each of the three pots were as follows. Seeds from the U.S. of ducksalad (Heteranthera limosa (Sw.) Willd.), smallflower umbrella sedge (Cyperus difformis L.) and purple redstem (Ammannia coccinea Rottb.), were planted into one 16-cm pot for each rate. Seeds from the U.S. of rice flatsedge (Cyperus iria L.), bearded sprangletop (Leptochloa fascicularis (Lam.) Gray), one stand of 9 or 10 water seeded rice seedlings (Oryza sativa L. cv. ‘Japonica—M202’), and one stand of 6 transplanted rice seedlings (Oryza sativa L. cv. ‘Japonica—M202’) were planted into one 16-cm pot for each rate. Seeds from the U.S. of barnyardgrass (Echinochloa crus-galli (L.) Beauv.), late watergrass (Echinochloa oryzicola Vasinger), early watergrass (Echinochloa oryzoides (Ard.) Fritsch) and junglerice (Echinochloa colona (L.) Link) were planted into one 16-cm pot for each rate. Plantings were sequential so that crop and weed species were at the 2.0 to 2.5-leaf stage at time of treatment.
(§2) Potted plants were grown in a greenhouse with day/night temperature settings of 29.5/26.7° C., and supplemental balanced lighting was provided to maintain a 16-hour photoperiod. Test pots were maintained in the greenhouse until test completion.
(§3) At time of treatment, test pots were flooded to 3 cm above the soil surface, treated by application of test compounds directly to the paddy water, and then maintained at that water depth for the duration of the test. Effects of treatments on rice and weeds were visually evaluated by comparison to untreated controls after 21 days. Plant response ratings are reported on a 0 to 100 scale; where 0 is no effect and 100 is complete control. A dash (-) response means no test result.

[4] = tested on: purple redstem; experiment: Test D flooded paddy test; assay type: in vivo, Ammannia coccinea; conditions: 21 days, scale 0 to 100
Description: as §1, §2, §3

[5] = tested on: late watergrass; experiment: Test D flooded paddy test; assay type: in vivo, Echinochloa oryzicola; conditions: 21 days, scale 0 to 100
Description: as §1, §2, §3

[6] = tested on: water seeded rice seedlings; experiment: Test D flooded paddy test; assay type: in vivo, Oryza sativa; conditions: 21 days, scale 0 to 100
Description: as §1, §2, §3

[7] = tested on: transplanted rice seedlings; experiment: Test D flooded paddy test; assay type: in vivo, Oryza sativa; conditions: 21 days, scale 0 to 100
Description: as §1, §2, §3

[8] = tested on: barnyardgrass; experiment: Test D flooded paddy test; assay type: in vivo, Echinochloa crus-galli; conditions: 21 days, scale 0 to 100
Description: as §1, §2, §3

SMILES: CCn1nc(C(C)(C)C)cc1C(=O)Nc1cc(C(=O)N(C)C)ccn1 [Compound 156, 2-[[[3-(1,1-dimethylethyl)-1-ethyl-1H-pyrazol-5-yl]carbonyl]amino]-N,N-dimethyl-4-pyridinecarboxamide]
- Response of wheat, With 1% naphthalic anhydride seed treatment ([1]; 62 g a.i./ha): 7
- Response of wheat, Without naphthalic anhydride seed treatment ([1]; 62 g a.i./ha): 67
- Response of wheat, With 1% naphthalic anhydride seed treatment ([1]; 125 g a.i./ha): 70
- Response of wheat, Without naphthalic anhydride seed treatment ([1]; 125 g a.i./ha): 100
- Response of wheat, With 1% naphthalic anhydride seed treatment ([1]; 250 g a.i./ha): 85
- Response of wheat, Without naphthalic anhydride seed treatment ([1]; 250 g a.i./ha): 100
- Response of wheat, With 1% naphthalic anhydride seed treatment ([1]; 500 g a.i./ha): 99
- Response of wheat, Without naphthalic anhydride seed treatment ([1]; 500 g a.i./ha): 100
- Response of corn, With 1% naphthalic anhydride seed treatment ([2]; 62 g a.i./ha): 0
- Response of corn, Without naphthalic anhydride seed treatment ([2]; 62 g a.i./ha): 2
- Response of corn, With 1% naphthalic anhydride seed treatment ([2]; 125 g a.i./ha): 0
- Response of corn, Without naphthalic anhydride seed treatment ([2]; 125 g a.i./ha): 30
- Response of corn, With 1% naphthalic anhydride seed treatment ([2]; 250 g a.i./ha): 17
- Response of corn, Without naphthalic anhydride seed treatment ([2]; 250 g a.i./ha): 65
- Response of corn, With 1% naphthalic anhydride seed treatment ([2]; 500 g a.i./ha): 17
- Response of corn, Without naphthalic anhydride seed treatment ([2]; 500 g a.i./ha): 88

SMILES: CCn1nc(C(C)(C)C)cc1C(=O)Nc1cc(C(=O)NCC2CC2)ccn1 [Compound 155]
- Plant response rating, Watergrass, Early ([3]; 32 g ai/ha): 0
- Plant response rating, Watergrass, Early ([3]; 64 g ai/ha): 0
- Plant response rating, Watergrass, Early ([3]; 125 g ai/ha): 25
- Plant response rating, Watergrass, Early ([3]; 250 g ai/ha): 35
- Plant response rating, Watergrass, Early ([3]; 500 g ai/ha): 70
- Plant response rating, Redstem ([4]; 32 g ai/ha): 0
- Plant response rating, Redstem ([4]; 64 g ai/ha): 0
- Plant response rating, Redstem ([4]; 125 g ai/ha): 0
- Plant response rating, Redstem ([4]; 250 g ai/ha): 95
- Plant response rating, Redstem ([4]; 500 g ai/ha): 95
- Plant response rating, Watergrass, Late ([5]; 32 g ai/ha): 0
- Plant response rating, Watergrass, Late ([5]; 64 g ai/ha): 0
- Plant response rating, Watergrass, Late ([5]; 125 g ai/ha): 20
- Plant response rating, Watergrass, Late ([5]; 250 g ai/ha): 30
- Plant response rating, Watergrass, Late ([5]; 500 g ai/ha): 60
- Plant response rating, Rice, Water Seeded ([6]; 32 g ai/ha): 0
- Plant response rating, Rice, Water Seeded ([6]; 64 g ai/ha): 0
- Plant response rating, Rice, Water Seeded ([6]; 125 g ai/ha): 25
- Plant response rating, Rice, Water Seeded ([6]; 250 g ai/ha): 35
- Plant response rating, Rice, Water Seeded ([6]; 500 g ai/ha): 40
- Plant response rating, Rice, Transplanted ([7]; 32 g ai/ha): 0
- Plant response rating, Rice, Transplanted ([7]; 64 g ai/ha): 0
- Plant response rating, Rice, Transplanted ([7]; 125 g ai/ha): 20
- Plant response rating, Rice, Transplanted ([7]; 250 g ai/ha): 30
- Plant response rating, Rice, Transplanted ([7]; 500 g ai/ha): 30
- Plant response rating, Barnyardgrass ([8]; 32 g ai/ha): 0
- Plant response rating, Barnyardgrass ([8]; 64 g ai/ha): 0
- Plant response rating, Barnyardgrass ([8]; 125 g ai/ha): 20
- Plant response rating, Barnyardgrass ([8]; 250 g ai/ha): 35
- Plant response rating, Barnyardgrass ([8]; 500 g ai/ha): 80
